# Measured values published in PubChem BioAssay (NCI).
# Where “and” joins values, the source holds several entries; their conditions need not be identical. Identical values can stand only once.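 A five-concentration, 48-hour dose response in 96-well plates underlies each endpoint, interpolated linearly between surrounding concentrations. Here, GI50 denotes the concentration required for 50% inhibition of growth. TGI: concentration producing complete growth inhibition.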
# Experiments:
# Experiment in all cases: growth of human tumour cells (NCI), 48 h
# HCT-116 colon = test system: HCT-116 colon
# SK-MEL-5 melanoma = test system: SK-MEL-5 melanoma
# BT-549 breast = test system: BT-549 breast
# HCC-2998 colon = test system: HCC-2998 colon
# A498 renal = test system: A498 renal
# UO-31 renal = test system: UO-31 renal
# HCT-15 colon = test system: HCT-15 colon
# UACC-62 melanoma = test system: UACC-62 melanoma
# CCRF-CEM leukemia = test system: CCRF-CEM leukemia
# SR leukemia = test system: SR leukemia
Structure (SMILES),GI50 (HCT-116 colon) [µM],TGI (HCT-116 colon),GI50 (SK-MEL-5 melanoma) [µM],TGI (SK-MEL-5 melanoma),GI50 (BT-549 breast) [µM],TGI (BT-549 breast),GI50 (HCC-2998 colon) [µM],TGI (HCC-2998 colon),GI50 (A498 renal) [µM],TGI (A498 renal),GI50 (UO-31 renal) [µM],TGI (UO-31 renal),GI50 (HCT-15 colon),TGI (HCT-15 colon),GI50 (UACC-62 melanoma) [µM],TGI (UACC-62 melanoma),GI50 (CCRF-CEM leukemia) [µM],TGI (CCRF-CEM leukemia),GI50 (SR leukemia) [µM],TGI (SR leukemia) [µM]
Nc1c(C(=O)Nc2cccc3ccccc23)sc2nc3c(cc12)CCCCC3,0.407,> 50 µM,0.347,11.5 µM,0.549,3.75 µM,2.41,> 50 µM,0.646,25.8 µM,1.91,> 50 µM,0.309 µM,> 50 µM,0.219,> 50 µM,0.692,> 50 µM,0.214,> 50
COc1cc2c3c(n(CCCn4ccnc4)c(=O)c2cc1OC)-c1ccccc1C3=O,< 0.0135,0.153 µM,< 0.0333,0.0861 µM,0.0623,30.7 µM,0.0598,0.504 µM,0.0449,0.292 µM,< 0.0141,0.0551 µM,0.159 µM,2.37 µM,< 0.0133,0.0906 µM,< 0.01,,0.0252,0.0583
COc1cc(N)ccc1Nc1c2ccccc2nc2ccccc12,2.51,7.63 µM,7.52,21.5 µM,15.3,32.4 µM,15.3,30.3 µM,6.28,22.4 µM,5.33,22.8 µM,2.86 µM,12 µM,12.9,31.2 µM,3.73,> 100 µM,2.11,> 32.5
Fc1ccc(Nc2ccc3cc(OCCCN4CCOCC4)ccc3n2)cc1F,4.5,> 100 µM,1.75,3.49 µM,7.28,52.1 µM,2.22,4.42 µM,2.21,7.64 µM,2.24,6.84 µM,2.55 µM,10.4 µM,1.99,4.94 µM,7.93,> 100 µM,2.03,32.8
O=C(c1cccs1)c1c(C(F)(F)F)n([O-])c2cc(C(F)(F)F)ccc2[n+]1=O,0.0575,0.176 µM,0.314,0.723 µM,0.188,0.367 µM,0.293,0.85 µM,0.96,2.6 µM,0.315,0.656 µM,0.175 µM,0.349 µM,0.462,1.28 µM,0.12,0.361 µM,0.0176,0.0833
Cc1c(N(C(=O)c2cc(-c3cc(Cl)ccc3C(=O)N3Cc4ccccc4C[C@H]3CN3CCOCC3)n(C)c2C)c2ccc(O)cc2)cc(C#N)n1C,7.66,> 100 µM,14.6,36.9 µM,6.41,26.5 µM,15.1,44.9 µM,23.2,61.6 µM,15.6,> 100 µM,16.6 µM,> 100 µM,20.6,> 100 µM,8.02,> 100 µM,6.25,> 100
CNC(=O)c1ccc(Nc2nc(OC3CCCC3)c3c(-c4ccc5nc(C)oc5c4)c[nH]c3n2)c(OC)c1,0.409,> 60.5 µM,2.12,> 100 µM,2.04,> 100 µM,> 100,> 100 µM,0.547,> 100 µM,2.97,> 100 µM,0.0689 µM,> 100 µM,2.58,> 100 µM,0.124,> 44.4 µM,0.0861,> 100
CC(=O)O[C@H]1C(=O)[C@@]2(C)[C@H]([C@H](OC(=O)c3ccccc3)[C@]3(O)C[C@H](OC(=O)[C@H](OC(=O)CCC(=O)OC4CCC(S/N=C(N)/N=C(\N)N(C)C)CC4)[C@@H](NC(=O)c4ccccc4)c4ccccc4)C(C)=C1C3(C)C)[C@]1(OC(C)=O)CO[C@@H]1C[C@@H]2O (some centres undefined),< 0.005,> 50 µM,0.0176,10.5 µM,0.0219,> 50 µM,0.0147,0.727 µM,0.0148,> 50 µM,0.619,> 50 µM,0.269 µM,> 50 µM,< 0.0155,> 25.5 µM,0.0155,> 50 µM,0.00631,> 50
CCOC(=O)c1ccc2[nH]c(Cc3[nH]c4ccc(C(=O)OCC)cc4c3C)c(C)c2c1,0.556,8.58 µM,1.22,14.5 µM,11.6,37 µM,4.35,59.3 µM,5.45,23.1 µM,7.26,30.8 µM,0.129 µM,21.4 µM,2.21,25.2 µM,1.58,28.7 µM,0.425,15.1
OCC1OC(O)C(N=Cc2ccc3c(c2)OCO3)C(O)C1O (centres undefined),,> 100 µM,,> 100 µM,,> 100 µM,,> 100 µM,,> 100 µM,,> 100 µM,,> 100 µM,,> 100 µM,,> 40.1 µM,,> 100
O=C(Nc1nc(-c2ccc(Cl)cc2)cs1)c1ccc(O)c(O)c1,3.71,14.3 µM,2.98,12 µM,3.49,17.9 µM,12,26.5 µM,3.37,15.5 µM,2.29,10.6 µM,3.14 µM,18.3 µM,4.24,18.1 µM,2.22,9.35 µM,2.09,9.26
COc1cc(/C=C2\C[C@H]3[C@@H]4CC=C5C[C@@H](OC(C)=O)CC[C@]5(C)[C@H]4CC[C@]3(C)[C@H]2OC(C)=O)ccc1OCCCn1ccnc1,7.78,17.2 µM,7.25,15.4 µM,5.68,13.6 µM,9.47,17.7 µM,7.19,15 µM,12.7,> 34 µM,7.5 µM,16 µM,8.81,16.1 µM,11.3,40.9 µM,8.2,36.3
Cc1cc(S(=O)(=O)/N=C(\N)n2nc(C)c(C)c2C)c(SCc2ccccc2)cc1Cl,38.5,> 100 µM,5.65,> 100 µM,> 100,> 100 µM,> 100,> 100 µM,> 100,> 100 µM,4.57,> 100 µM,7.1 µM,> 100 µM,> 100,> 100 µM,4.49,> 100 µM,> 100,> 100
CN(C)c1ccc2[nH]c(O)c(C=Nc3ccc(S(N)(=O)=O)cc3)c2c1,20.3,> 25 µM,> 25,> 25 µM,> 25,> 25 µM,> 25,> 25 µM,> 25,> 25 µM,> 25,> 25 µM,> 25 µM,> 25 µM,> 25,> 25 µM,17.9,> 25 µM,13.5,> 25
Cc1cc(-c2cc(C)c(O)c(C(C)(C)C)c2)cc(C(C)(C)C)c1O,,19.5 µM and 22.8 µM,,22.3 µM and 28.2 µM,,27.6 µM and 26.5 µM,,15.4 µM and 18.7 µM,,21.3 µM and 32.7 µM,,23 µM and 32 µM,5.13 µM and 10.8 µM,18.1 µM and 23.5 µM,,26.1 µM and 26.8 µM,,22.4 µM and 39.1 µM,,18.1
O=C(Nc1cccc(-c2nc3ccccc3[nH]2)c1)c1cccc(NC(=O)c2ccco2)c1,1.74,3.11 µM,1.89,4.1 µM,1.85,3.92 µM,10,21.5 µM,4.33,18.3 µM,3.24,11.8 µM,3.06 µM,10.8 µM,1.79,3.5 µM,3.99,16.1 µM,2.33,6.53
O=[N+]([O-])c1ccccc1/C=C/C=C1c2ccccc2-c2ccccc21,> 100,> 100 µM,> 100,> 100 µM,> 100,> 100 µM,> 100,> 100 µM,> 100,> 100 µM,> 100,> 100 µM,> 100 µM,> 100 µM,> 100,> 100 µM,> 100,> 100 µM,> 100,> 100
CCC[C@H](Nc1nc(-c2ccc(NC(=O)NCC)c(OC)c2)ncc1C)c1cccnc1,0.0349,10.5 µM,0.0273,0.0912 µM,0.0413,26 µM,0.0295,0.874 µM,0.0322,0.864 µM,0.277,17.2 µM,0.112 µM,> 42.5 µM,0.0572,> 48.5 µM,0.032,,0.03,1.71
